Read-outs that look alike come from different tables or passages of the source.
What was measured:
[1] = stated after the mice and rats data; cited from earlier work
[2] = target: COX-1 (Homo sapiens, UniProt P23219); details: concentrations up to 100 μM; cited from earlier work
[3] = guinea-pigs, cited from earlier work
[4] = tested on: astrocyte-microglia co-culture (mixed glial cell culture) exposed to Aβ1-42; assay: M1/M2 marker mRNA expression (RT-qPCR) in mixed glial culture exposed to Aβ1-42; format: cell-based, C57BL/6 mice
Method: C57BL/6 mice are purchased from Charles River. Mixed glial cell cultures were prepared from the brains of 1-3 day newborn mice. Briefly, after carefully removing meninges and large blood vessels, the brains were pooled and then dissociated by manual dispersion with a fire-polished Pasteur pipette. The cells were allowed to attach and grow at 37° C. in DMEM supplemented with 10% fetal bovine serum (FBS) (Euroclone), 4 mM L-glutamine, 200 U/ml penicillin/streptomycin in a water saturated atmosphere containing 5% CO2 for two week.
Soluble Aβ 1-42 were dissolved in sterile water to a final concentration of 2.5 mM, divided into aliquots and frozen. For experiments, mixed glial cells were incubated with soluble (not aggregated) Aβ 1-42, added at a concentration of 10 μM, in presence of CHF5074 (solved in 0.2% DMSO) or vehicle. Incubation was carried out for different times (from 1 to 8 days) in a Neurobasal/B27 medium. At the end of these periods, neuronal cell death by necrosis was evaluated by measuring the amount of lactate dehydrogenase (LDH) released into the culture medium using the CytoTox 96-non-radioactive cytotoxicity assay (Promega).
Total RNA was purified from cultured cells using the RNeasy Mini Kit for total RNA extractions (Qiagen). RNA was reverse transcribed using the Quantitect® Reverse Transcription Kit (Qiagen) with optimized mix of oligo-dT and random primers as primer and 1 μg of total RNA from mixed primary culture or co-culture. The reverse transcription reaction were performed in a total volume of 20 μL containing 5×RT-Buffer (that included dNTPs and Mg^2+), 50 U RT (Reverse trascriptase), 20 U RNase Inhibitor in RNAse-DNase free water for 10 min at 25° C., 2 h at 37° C. and 10 min at 85° C. Individual 25 μL SYBR Green real-time PCR reactions consisted of 2 μL of cDNA, 12.5 μL of 2× iQ™ SYBR Green Supermix (Bio-Rad), and 1.5 μL of each 10 μM optimized forward and reverse primers in 7.5 μL RNase-free water.
The PCR were performed on a Bio-Rad iCycler Detection System using a 3-stage program: 3 min at 50° C., 10 min at 95° C. and 40 cycles of 30 sec at 94° C. and 45 secat 60° C. For standardization of quantification, β-actin were amplified simultaneously. Sets of primer were designed to amplify by Real-time RT-PCR (q-RT-PCR) and RT-PCR genes expressed by classically activated (M1) microglia: • TNFα (Tumor Necrosis Factor α); • IL-1β (Interleukin1β); • iNOS (inducible Nitric Oxide Sinthase); and by alternatively activated (M2) microglia: • ARG1 (Arginase 1); • MRC1 (C-type mannose receptor 1); • TREM2 (Triggering Receptor Expressed on Myeloid cells-2). Primer3plus was used as primer designing tool and then checked the oligos (synthetized by Invitrogen) to verify melting temperatures and quality of the sequences.
Data were analyzed with Student's t-test for independent data. P<0.05 was considered as significant.
The effect of CHF5074 on the inflammatory response induced by Aβ was examined. Mixed astrocyte-microglia co-cultures were exposed to Aβ with or without CHF5074 at 3 μM concentration and examined for cytokine expression after 2 or 8 days. For classical activation of microglia, the expression of iNOS, beside TNFα and IL-1β was analyzed (see FIG. 2).
The alternative microglial activation markers (M2) in mixed glial cultures exposed to Aβ with and without CHF5074 for 2 days or 8 days were also investigated (see FIG. 3).

[5] = tested on: Notch intracellular cleavage in human embryonic kidney 293swe cells; details: at 5 μM, HEK 293swe cells; cited from earlier work
[6] = tested on: Aβ42 secretion in human neuroglioma cells over-expressing the Swedish mutated APP (H4swe); details: read-out: IC50 for lowering Aβ42 secretion; cited from earlier work
[7] = mice, cited from earlier work
[8] = rats; cited from earlier work
[9] = target: T1, COX-2 (Homo sapiens, UniProt P35354); details: concentrations up to 300 μM; cited from earlier work
T1 sequence (P35354 18-604): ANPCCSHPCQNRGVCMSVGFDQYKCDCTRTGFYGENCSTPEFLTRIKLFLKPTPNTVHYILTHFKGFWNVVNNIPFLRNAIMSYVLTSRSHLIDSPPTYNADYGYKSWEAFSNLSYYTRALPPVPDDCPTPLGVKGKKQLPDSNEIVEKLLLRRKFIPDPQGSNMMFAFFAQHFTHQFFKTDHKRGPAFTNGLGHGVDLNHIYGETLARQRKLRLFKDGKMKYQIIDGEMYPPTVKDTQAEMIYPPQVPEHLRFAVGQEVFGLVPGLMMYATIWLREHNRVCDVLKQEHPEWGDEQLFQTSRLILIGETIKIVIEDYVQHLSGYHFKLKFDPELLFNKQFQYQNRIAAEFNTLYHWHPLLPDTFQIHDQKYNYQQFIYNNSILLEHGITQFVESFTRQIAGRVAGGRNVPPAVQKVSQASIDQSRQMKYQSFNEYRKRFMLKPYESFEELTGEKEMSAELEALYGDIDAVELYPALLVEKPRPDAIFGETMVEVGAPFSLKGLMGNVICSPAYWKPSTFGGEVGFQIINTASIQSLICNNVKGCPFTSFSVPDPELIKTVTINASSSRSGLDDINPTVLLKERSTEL

[10] = dogs, cited from earlier work
[11] = tested on: TNFα; details: healthy subjects, short-term administration; cited from earlier work
[12] = tested on: NICD-responsive genes; details: at 100 μM; cited from earlier work
[13] = tested on: transgenic mouse models of AD; details: cited from earlier work
[14] = tested on: dendritic spine density; details: mice; cited from earlier work
[15] = tested on: AD patients; details: cited from earlier work

Chain of COX-1 (P23219 24-599): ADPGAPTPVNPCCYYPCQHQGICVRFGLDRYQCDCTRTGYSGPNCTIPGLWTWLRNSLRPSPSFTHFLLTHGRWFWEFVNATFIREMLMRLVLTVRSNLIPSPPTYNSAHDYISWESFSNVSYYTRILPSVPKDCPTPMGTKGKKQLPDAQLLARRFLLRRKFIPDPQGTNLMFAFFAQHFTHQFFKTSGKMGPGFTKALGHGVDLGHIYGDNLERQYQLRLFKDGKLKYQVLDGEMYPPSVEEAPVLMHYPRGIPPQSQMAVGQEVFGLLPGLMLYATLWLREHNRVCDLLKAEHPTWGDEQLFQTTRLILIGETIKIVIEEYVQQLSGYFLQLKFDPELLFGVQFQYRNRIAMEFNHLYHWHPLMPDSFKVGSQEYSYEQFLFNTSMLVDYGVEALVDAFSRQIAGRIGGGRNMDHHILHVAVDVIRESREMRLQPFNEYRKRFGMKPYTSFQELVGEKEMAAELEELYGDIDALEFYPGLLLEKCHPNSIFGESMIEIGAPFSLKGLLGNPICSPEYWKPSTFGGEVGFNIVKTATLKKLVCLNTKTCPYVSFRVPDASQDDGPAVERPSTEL

Compound: O=C(O)C1(c2ccc(-c3ccc(Cl)c(Cl)c3)c(F)c2)CC1 [CHF 5074, 1-(3′,4′-dichloro-2-fluorobiphenyl-4-yl)cyclopropanecarboxylic acid]
- brain levels as % of the corresponding plasma concentrations [1]: 3-14%
- inhibitory activity on COX-1 [2]: does not display inhibitory activity
- plasma elimination half-life t1/2 ([3]; after oral administration): ≈ 30 hours
- brain penetration [3]: 3-9%
- ARG1 expression ([4]; 3 μM with 10 μM Aβ1-42, 2 days): no change
- IL-1β mRNA expression ([4]; 3 μM with 10 μM Aβ1-42, 2 days): significantly decreased
- TNFα mRNA expression ([4]; 3 μM with 10 μM Aβ1-42, 2 days): significantly decreased
- iNOS mRNA expression ([4]; 3 μM with 10 μM Aβ1-42, 2 days): significantly decreased
- increase of TREM2 mRNA over the basal value ([4]; 3 μM with 10 μM Aβ1-42, 2 days): ~60%
- MRC1 mRNA level ([4]; 3 μM with 10 μM Aβ1-42, 2 days, Aβ alone reduced MRC1 to about 50% of basal): near a three-fold increase
- M2 mRNAs (MRC1, TREM2 and ARG1) expression ([4]; 3 μM with 10 μM Aβ1-42, 8 days): None of the tested M2 mRNAs (MRC1, TREM2 and ARG1) appeared modified
- TNFα, IL1β and iNOS (M1) expression levels ([4]; 3 μM with 10 μM Aβ1-42, 8 days): does not modify
- effects on Notch intracellular cleavage [5]: no effects were observed
- IC50 [6]: 3.6 µM
- oral absorption ([7]; oral): 74%
- plasma elimination t1/2 [7]: 12 h
- oral absorption [8]: 50%
- inhibitory activity on COX-2 [9]: does not display inhibitory activity
- oral absorption ([10]; oral route): 80-100%
- plasma elimination t1/2 [10]: ≈ 24 hours
- TNFα level in cerebrospinal fluid [11]: reduce TNFα level
- expression profile of several NICD-responsive genes [12]: does not alter
- tolerability ([13]; 60 mg/kg/day, prolonged treatment for 4-9 months): well tolerated
- neuropathological and behavioral activity ([13]; oral doses of 60 mg/kg/day): active

Compound: CC(C)[C@H](O)C(=O)N[C@@H](C)C(=O)N[C@@H]1C(=O)N(C)CCc2ccccc21 [semagacestat]
- dendritic spine density [14]: decrease dendritic spine density
- cognition and ability to complete activities of daily living versus placebo ([15]; interim analysis of two Phase 3 trials): worsened over time to a statistically significantly higher rate
- rate of skin cancer compared to placebo ([15]; two 21-month Phase 3 trials, more than 2,600 AD patients): increased rate of skin cancer

From patent US20150065567A1, “1-PHENYLALKANECARBOXYLIC ACID DERIVATIVES FOR THE TREATMENT OF ALZHEIMER'S DISEASE AND MULTIPLE SCLEROSIS” (Chiesi Farmaceutici S.p.A., priority 2013, published 2015)
